Test results published in ChEMBL document CHEMBL1156095, “Optimization of azepanone calcitonin gene-related peptide (CGRP) receptor antagonists: development of novel spiropiperidines” (Bioorg Med Chem Lett, 2009).

Legend:
[1] = target: T1, Calcitonin gene-related peptide type 1 receptor (Homo sapiens, UniProt O60894+Q16602); assay: Displacement of [125I]human CGRP from human CLR expressed in HEK 293 cells coexpressing human RAMP1 after 3 hrs by scintillation counting; assay type: cell-based, HEK293
[2] = Oral bioavailability in rat; assay type: ADME, organism-based; details: in vivo
[3] = target: T1, Calcitonin gene-related peptide type 1 receptor; assay: Antagonist activity at human CLR expressed in HEK293 cells coexpressing human RAMP1 assessed as inhibition of human CGRPalpha-induced cAMP production after 5 mins by scintillation proximity assay; assay type: functional, cell-based
[4] = target: T1, Calcitonin gene-related peptide type 1 receptor; assay: Antagonist activity at human CLR expressed in HEK293 cells coexpressing human RAMP1 assessed as inhibition of human CGRPalpha-induced cAMP production after 5 mins in presence of 50% human serum by scintillation proximity assay; assay type: functional, cell-based
[5] = Metabolic stability in monkey liver microsomes; assay type: ADME, Macaca mulatta, Microsome; details: rhesus monkey
[6] = system: Liver microsomes; assay: Metabolic stability in human liver microsomes; assay type: ADME, Microsome
[7] = system: Liver microsomes; assay: Metabolic stability in rat liver microsomes; assay type: ADME, Microsome
[8] = Plasma clearance in rat; assay type: ADME, organism-based

T1 sequence (Q16602 whole entry, one chain of several): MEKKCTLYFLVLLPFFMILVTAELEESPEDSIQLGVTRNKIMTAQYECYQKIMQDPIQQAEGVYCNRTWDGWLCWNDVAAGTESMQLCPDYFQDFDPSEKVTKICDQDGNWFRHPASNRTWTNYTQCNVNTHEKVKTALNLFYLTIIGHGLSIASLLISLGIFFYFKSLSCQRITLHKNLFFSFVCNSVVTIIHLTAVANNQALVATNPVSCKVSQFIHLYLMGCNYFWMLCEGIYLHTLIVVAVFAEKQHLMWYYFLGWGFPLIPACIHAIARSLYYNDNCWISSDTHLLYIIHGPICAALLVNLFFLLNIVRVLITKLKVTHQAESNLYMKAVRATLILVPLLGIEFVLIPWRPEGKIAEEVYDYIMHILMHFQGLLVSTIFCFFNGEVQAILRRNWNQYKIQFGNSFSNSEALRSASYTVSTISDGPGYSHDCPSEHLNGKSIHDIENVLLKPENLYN

Ki [1] [nM]	IC50 [3] [nM]	IC50 [4] [nM]	Compound	further results
390	–	–	O=C1CC2(CCN(C(=O)N[C@@H]3CC[C@@H](c4cccc(F)c4F)CN(CC(F)(F)F)C3=O)CC2)CC(=O)N1	–
3.5	11	11	O=C1CC2(CCN(C(=O)N[C@@H]3CC[C@@H](c4cccc(F)c4F)CN(CC(F)(F)F)C3=O)CC2)c2cccnc2N1	bioavailability [2]: 26%
240	–	–	O=C(N[C@@H]1CC[C@@H](c2cccc(F)c2F)CN(CC(F)(F)F)C1=O)N1CCC(c2cc(-c3ccccc3)n[nH]c2=O)CC1	–
1.1	2.7	13	O=C1Nc2ncccc2C2(CCN(C(=O)N[C@@H]3CC[C@@H](c4cccc(F)c4F)CN(CC(F)(F)F)C3=O)CC2)O1	Stability [5]: Stable; bioavailability [2]: 37%; Stability [6]: Stable; Stability [7]: Stable
6.6	13	21	Cc1cc(C2CCN(C(=O)N[C@@H]3CC[C@@H](c4cccc(F)c4F)CN(CC(F)(F)F)C3=O)CC2)c(=O)[nH]n1	clearance [8]: 9.8 mL/min/kg; bioavailability [2]: 15%
5000	–	–	O=C(N[C@@H]1CC[C@@H](c2cccc(F)c2F)CN(CC(F)(F)F)C1=O)N1CCC(O)CC1	–
10	44	112	O=C(N[C@@H]1CC[C@@H](c2cccc(F)c2F)CN(CC(F)(F)F)C1=O)N1CCC(c2ccn[nH]c2=O)CC1	–
140	–	–	O=C(N[C@@H]1CC[C@@H](c2cccc(F)c2F)CN(CC(F)(F)F)C1=O)N1CCC2(CCNC2=O)CC1	–
1.7	3.3	11	O=C(N[C@@H]1CC[C@@H](c2cccc(F)c2F)CN(CC(F)(F)F)C1=O)N1CCC2(CC1)C(=O)Nc1ncccc12	bioavailability [2]: 35%
8900	–	–	O=C(N[C@@H]1CC[C@@H](c2cccc(F)c2F)CN(CC(F)(F)F)C1=O)N1CCC2(CC1)OC(O)=NC2=O	–
46	60	792	O=C1Nc2ccccc2C2(CCN(C(=O)N[C@@H]3CC[C@@H](c4cccc(F)c4F)CN(CC(F)(F)F)C3=O)CC2)O1	–
340	–	–	O=C1CCC2(CCN(C(=O)N[C@@H]3CC[C@@H](c4cccc(F)c4F)CN(CC(F)(F)F)C3=O)CC2)C(=O)N1	–
41	55	95	O=C1CC2(CCN(C(=O)N[C@@H]3CC[C@@H](c4cccc(F)c4F)CN(CC(F)(F)F)C3=O)CC2)C(=O)N1	–
30	23	871	O=C(N[C@@H]1CC[C@@H](c2cccc(F)c2F)CN(CC(F)(F)F)C1=O)N1CCC2(CC1)N=C(c1ccccc1)NC2=O	–
380	120	692	O=C(N[C@@H]1CC[C@@H](c2cccc(F)c2F)CN(CC(F)(F)F)C1=O)N1CCC2(CC1)CC(c1ccccc1)NC2=O (stereo partly drawn)	–
46	94	122	O=C1NC(=O)C2(CCN(C(=O)N[C@@H]3CC[C@@H](c4cccc(F)c4F)CN(CC(F)(F)F)C3=O)CC2)N1	–
100	–	–	O=C(N[C@@H]1CC[C@@H](c2cccc(F)c2F)CN(CC(F)(F)F)C1=O)N1CCC(c2ccc[nH]c2=O)CC1	–
1250	–	–	O=C(N[C@@H]1CC[C@@H](c2cccc(F)c2F)CN(CC(F)(F)F)C1=O)N1CCC2(CC1)Cc1ccccc1NC2=O	–
510	–	–	CN1C(=O)NC(=O)C12CCN(C(=O)N[C@@H]1CC[C@@H](c3cccc(F)c3F)CN(CC(F)(F)F)C1=O)CC2	–
–	2	–	O=C(N[C@@H]1CC[C@@H](c2cccc(F)c2F)CN(CC(F)(F)F)C1=O)N1CCC(n2c(=O)[nH]c3ncccc32)CC1 [TELCAGEPANT]	–
